# In PMC3880967, “Isolation of a novel alkaline-stable lipase from a metagenomic library and its specific application for milkfat flavor production” (Microbial Cell Factories, 2014):
# Biological target: T1, Est_p6 (uncultured bacterium, UniProt D7NJ22)
# T1 construct: predicted signal peptide (residues 1-26) removed, from residue 27 of 357; C-terminal 6xHis tag kept (pET-28a, NcoI/HindIII); E. coli BL21(DE3); Ni-NTA; 36 kDa by SDS-PAGE
# Test: spectrophotometric pNP release at […] nm, Lineweaver-Burk
# Type: biochemical
# Details: 50 mM Tris-HCl pH 8.60, 50°C, 4% ethanol
# T1 sequence (D7NJ22 27-357 limits assumed): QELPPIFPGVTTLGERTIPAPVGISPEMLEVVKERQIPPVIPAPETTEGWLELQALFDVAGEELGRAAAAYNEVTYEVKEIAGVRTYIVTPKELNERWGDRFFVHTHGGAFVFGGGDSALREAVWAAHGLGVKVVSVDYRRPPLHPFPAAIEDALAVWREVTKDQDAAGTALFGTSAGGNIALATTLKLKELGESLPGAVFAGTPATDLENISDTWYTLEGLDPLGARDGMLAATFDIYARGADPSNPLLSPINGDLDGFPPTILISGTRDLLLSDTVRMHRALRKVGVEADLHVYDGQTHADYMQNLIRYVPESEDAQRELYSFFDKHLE
row,SMILES,Km [µM]
1,"CC(=O)Oc1ccc([N+](=O)[O-])cc1 [C2, pNP acetate]",2640
2,"CCCC(=O)Oc1ccc([N+](=O)[O-])cc1 [C4, pNP butyrate]",1150
3,"CCCCCCCC(=O)Oc1ccc([N+](=O)[O-])cc1 [C8, pNP caprylate]",322
4,"CCCCCCCCCC(=O)Oc1ccc([N+](=O)[O-])cc1 [C10, pNP caprate]",1280
5,"CCCCCCCCCCCC(=O)Oc1ccc([N+](=O)[O-])cc1 [C12, pNP laurate]",149
